# Measured values: US11541050B2, “Pyrimidine derivatives for the treatment of viral infections” (JANSSEN SCIENCES IRELAND UC, priority 2011, dated 2023)
# Molecular target: T1, human TLR8 (wild type sequence) (Homo sapiens, UniProt Q9NR97)
# T1 construct: expressed in transfected cells; host or cells: HEK293
# T1 sequence (Q9NR97 27-1041): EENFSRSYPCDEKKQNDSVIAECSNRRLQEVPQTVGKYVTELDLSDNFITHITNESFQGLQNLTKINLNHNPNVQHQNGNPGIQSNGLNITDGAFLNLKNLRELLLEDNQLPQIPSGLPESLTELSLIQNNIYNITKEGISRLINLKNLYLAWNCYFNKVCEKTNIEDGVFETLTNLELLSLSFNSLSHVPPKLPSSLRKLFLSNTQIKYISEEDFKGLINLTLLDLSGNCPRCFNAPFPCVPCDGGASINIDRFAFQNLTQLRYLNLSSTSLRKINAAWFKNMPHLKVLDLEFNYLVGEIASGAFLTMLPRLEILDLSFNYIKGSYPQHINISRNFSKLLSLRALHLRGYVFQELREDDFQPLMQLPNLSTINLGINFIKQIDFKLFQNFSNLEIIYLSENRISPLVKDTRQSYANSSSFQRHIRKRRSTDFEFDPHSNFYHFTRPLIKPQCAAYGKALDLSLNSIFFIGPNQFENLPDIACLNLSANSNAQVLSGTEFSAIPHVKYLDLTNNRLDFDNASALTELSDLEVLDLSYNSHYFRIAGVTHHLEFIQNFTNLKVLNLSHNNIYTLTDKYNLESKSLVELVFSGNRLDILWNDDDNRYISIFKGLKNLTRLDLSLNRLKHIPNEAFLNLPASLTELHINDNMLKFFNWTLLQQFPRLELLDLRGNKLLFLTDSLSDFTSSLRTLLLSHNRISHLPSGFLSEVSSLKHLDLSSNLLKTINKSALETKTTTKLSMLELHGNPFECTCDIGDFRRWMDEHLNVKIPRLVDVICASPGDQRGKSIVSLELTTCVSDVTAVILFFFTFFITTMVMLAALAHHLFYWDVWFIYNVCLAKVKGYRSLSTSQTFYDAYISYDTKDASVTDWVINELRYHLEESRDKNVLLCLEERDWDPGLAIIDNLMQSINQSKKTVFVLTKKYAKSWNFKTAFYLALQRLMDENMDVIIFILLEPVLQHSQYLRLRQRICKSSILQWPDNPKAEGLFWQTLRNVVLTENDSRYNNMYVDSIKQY
# Assay: TLR8 cellular NFκB-luc reporter assay, wild type TLR8
# Format: cell-based
# Set-up: unit not given here
# Details: lowest effective concentration, wild type TLR8 (compounds 1-73)
# How it was run: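 HEK293, transient transfection 48 h (CMV-TLR7/8 WT or 2nd-LRR deletion + NFκB-luc); compound 6 h, 37 °C, 5% CO2; Steady Lite luciferase; quadruplicate dose-response; LEC = conc. ≥2× above assay SD.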
row,SMILES,TLR8-wt_LEC
1,CCCCNc1nc(N)ncc1Oc1ccccc1OC [Compound 64],18.43
2,CCCCCNc1nc(N)ncc1OC [Compound 56],5.55
3,CCCCNc1nc(N)ncc1OCC [Compound 60],2.08
4,CCCCCOc1cnc(N)nc1NCCCC [Compound 32],9.97
5,CCCCNc1nc(N)ncc1OC [Compound 4],2.56
6,CCCCNc1nc(N)ncc1OCC(C)C [Compound 31],17.53
7,CCCCNc1nc(N)ncc1OCc1ccc(-c2ccccc2)cc1 [Compound 58],3.84
8,CCCCCNc1nc(N)ncc1OCC [Compound 63],6.35
9,CCCCCCNc1nc(N)ncc1OCC [Compound 70],>24.59
10,CCCCCNc1nc(N)ncc1Oc1ccccc1OC [Compound 38],>50
